BindingDB's records for doi:10.1073/pnas.97.2.925 (Vanderbilt University School of Medicine, 2000)

How the values were obtained:
[1] = target: T1, Prostaglandin G/H synthase 2 (Homo sapiens, UniProt P35354)
T1 sequence (P35354 whole entry): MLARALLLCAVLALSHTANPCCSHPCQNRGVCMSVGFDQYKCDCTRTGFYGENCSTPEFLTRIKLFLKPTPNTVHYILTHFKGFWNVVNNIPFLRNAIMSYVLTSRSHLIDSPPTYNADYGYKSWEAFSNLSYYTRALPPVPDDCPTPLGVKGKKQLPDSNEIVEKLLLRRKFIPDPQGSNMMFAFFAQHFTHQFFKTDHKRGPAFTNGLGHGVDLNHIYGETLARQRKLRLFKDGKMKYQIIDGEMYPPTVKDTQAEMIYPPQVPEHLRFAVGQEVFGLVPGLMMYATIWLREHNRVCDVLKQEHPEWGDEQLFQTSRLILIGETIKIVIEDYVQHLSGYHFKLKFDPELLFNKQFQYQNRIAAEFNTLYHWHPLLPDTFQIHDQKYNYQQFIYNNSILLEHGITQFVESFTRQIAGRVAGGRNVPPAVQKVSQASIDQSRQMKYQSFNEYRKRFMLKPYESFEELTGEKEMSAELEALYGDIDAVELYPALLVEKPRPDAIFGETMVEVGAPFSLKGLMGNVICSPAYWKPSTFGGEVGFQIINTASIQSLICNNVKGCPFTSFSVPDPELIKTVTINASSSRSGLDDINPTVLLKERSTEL

[2] = target: T2, Prostaglandin G/H synthase 1 (Ovis aries, UniProt P05979)
T2 sequence (P05979 whole entry): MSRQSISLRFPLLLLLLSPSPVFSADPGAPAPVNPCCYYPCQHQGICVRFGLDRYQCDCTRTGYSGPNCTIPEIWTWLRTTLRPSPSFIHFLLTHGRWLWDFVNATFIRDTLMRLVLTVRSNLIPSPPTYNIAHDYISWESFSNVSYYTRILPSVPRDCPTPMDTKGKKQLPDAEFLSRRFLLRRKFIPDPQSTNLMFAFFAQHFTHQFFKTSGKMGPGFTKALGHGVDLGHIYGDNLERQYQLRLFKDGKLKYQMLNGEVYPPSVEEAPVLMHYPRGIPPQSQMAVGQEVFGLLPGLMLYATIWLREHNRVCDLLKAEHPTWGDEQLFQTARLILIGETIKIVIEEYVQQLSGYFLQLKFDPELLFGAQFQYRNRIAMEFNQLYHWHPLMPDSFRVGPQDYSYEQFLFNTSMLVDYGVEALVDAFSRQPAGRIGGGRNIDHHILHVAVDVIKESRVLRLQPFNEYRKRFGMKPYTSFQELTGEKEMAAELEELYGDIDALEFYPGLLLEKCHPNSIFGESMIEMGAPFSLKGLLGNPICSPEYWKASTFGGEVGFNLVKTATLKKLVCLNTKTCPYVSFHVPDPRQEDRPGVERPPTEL

SMILES: Cc1ccc(Cl)c(Nc2ccccc2C(=O)NCC(=O)O)c1Cl [2-({2-[(2,6-dichloro-3-methylphenyl)amino]phenyl}formamido)acetic acid]
- IC50 [1]: 400 nM
- IC50 [2]: 300 nM
